The source of these data is PMC4072041 (Nuclear medicine and biology, 2014).

One experiment relates to CRF1 receptor. Particulars: earlier CRF1 ligand; cited from earlier work.
The subject of another experiment is CRF1 vs. CRF2 receptors. Particulars: stated in method, no reference given; cited from earlier work.
Another experiment deals with T1, [125I]ovine-CRF (Ovis aries, UniProt P01142, 125I-labelled CRF).
T1 chain: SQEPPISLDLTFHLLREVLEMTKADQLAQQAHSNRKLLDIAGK
Briefly: radioligand binding.

Bounds are passed on as bounds.

`CCC(COC)n1nnc2c(Nc3ccc(OC)cc3C)nc(C)cc21` (racemic) [[^3H]SN003, (+/−)-N-[2-methyl-4-methoxyphenyl]-1(1-(methoxymethyl)propyl)-6-methyl-1H-1,2,3-triazolo[4,5-c]pyridin-4-amine]: the “ratio of CRF1 receptor-specific to non-specific binding” value with CRF1 receptor is on record as “about 1”.
With ovine-CRF, the “selective for CRF1 vs. CRF2” value in the experiment on CRF1 vs. CRF2 receptors was greater than 100 fold.

B1: CRF1 receptor (protein)
chain: SLQDQRCENLSLTSNVSGLQCNASVDLIGTCWPRSPAGQLVVRPCPAFFYGVRYNTTNNGYRECLANGSWAARVNYSECQEILNEEKKSKVHYHVAVIINYLGHCISLVALLVAFVLFLRLRSIRCLRNIIHWNLISAFILRNATWFVVQLTVSPEVHQSNVAWCRLVTAAYNYFHVTNFFWMFGEGCYLHTAIVLTYSTDRLRKWMFVCIGWGVPFPIIVAWAIGKLHYDNEKCWFGKRPGVYTDYIYQGPMILVLLINFIFLFNIVRILMTKLRASTTSETIQYRKAVKATLVLLPLLGITYMLFFVNPGEDEVSRVVFIYFNSFLESFQGFFVSVFYCFLNSEVRSAIRKRWRRWQDKHSIRARVARAMSIPTSPTRVSFHSIKQSTAV
In turn, B1 gave a Kd in experiment [125I]ovine-CRF of 0.45 nM.

For orientation: Kd means a measure of binding affinity in units of concentration. The low end stands for tighter binding, the high end for weaker binding.
